The source of these data is patent US20090005369A1, “Oxazolidinone Compounds and Compositions and Methods Related Thereto” (priority 2004, published 2009).

The structures appear in SMILES notation. ≈ marks a conversion by molar mass, not a printed value.

In experiment [1] the test system is E. faecium ATCC 51559 MDR 312. Briefly: MIC by standard microdilution (NCCLS M7-A5). Type of experiment: cell-based. The following applies: Enterococcus faecium, ATCC51559, read-out: In vitro activities against bacteria, MIC. In general terms: Broth dilution looks for growth in wells or tubes with falling amounts of substance.
The test system of experiment [2] is E. faecalis ATCC 29212 53. Description: MIC by standard microdilution (NCCLS M7-A5). The following applies: Enterococcus faecalis, ATCC29212, read-out: In vitro activities against bacteria, MIC. The experiment is classed as cell-based.
Experiment [3] relates to E. faecalis ATCC 51575 MDR 311. Briefly: MIC by standard microdilution (NCCLS M7-A5). The settings on record: Enterococcus faecalis, ATCC51575, read-out: In vitro activities against bacteria, MIC. Type of experiment: cell-based.
Experiment [4] concerns S. aureus ATCC 43300 MR 214. Description: MIC by standard microdilution (NCCLS M7-A5). The experiment is classed as cell-based. The following applies: Staphylococcus aureus, ATCC43300, read-out: In vitro activities against bacteria, MIC.
In experiment [5] the test system is S. aureus ATCC 25923 MS 319. Briefly: MIC by standard microdilution (NCCLS M7-A5). Type of experiment: cell-based. The settings on record: Staphylococcus aureus, ATCC25923, read-out: In vitro activities against bacteria, MIC.
Experiment [6] has as its system S. pneumoniae ATCC 49619 PR 215. Description: MIC by standard microdilution (NCCLS M7-A5). The settings on record: Streptococcus pneumoniae, ATCC49619, read-out: In vitro activities against bacteria, MIC. Type of experiment: cell-based.
A further experiment deals with T1, human MAO-B (Homo sapiens, UniProt P27338).
T1 construct: purchased Gentest, BD, USA; host or cells: SF9 insect cells (membranes)
T1 sequence (P27338 1-520): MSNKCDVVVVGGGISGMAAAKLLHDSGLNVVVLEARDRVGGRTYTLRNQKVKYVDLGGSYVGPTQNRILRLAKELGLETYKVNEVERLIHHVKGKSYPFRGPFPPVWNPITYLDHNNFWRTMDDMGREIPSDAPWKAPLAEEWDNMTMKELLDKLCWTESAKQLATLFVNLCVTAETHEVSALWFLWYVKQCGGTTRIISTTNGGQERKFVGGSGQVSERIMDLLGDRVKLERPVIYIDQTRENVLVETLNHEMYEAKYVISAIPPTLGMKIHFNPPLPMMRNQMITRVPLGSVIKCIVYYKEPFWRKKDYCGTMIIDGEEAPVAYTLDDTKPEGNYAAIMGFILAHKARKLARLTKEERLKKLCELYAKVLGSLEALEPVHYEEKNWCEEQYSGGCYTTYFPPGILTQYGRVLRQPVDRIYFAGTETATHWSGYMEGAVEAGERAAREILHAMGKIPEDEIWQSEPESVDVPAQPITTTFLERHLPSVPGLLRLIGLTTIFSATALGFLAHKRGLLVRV
Briefly: In vitro MAO-B enzymatic activity (kynuramine substrate, fluorescence). The experiment is classed as biochemical. The following applies: membranes from SF9 cells, kynuramine 30 μM, read-out: Inhibitory activity of human MAO, Ki.

Another experiment concerns the target T2, human MAO-A (Homo sapiens, UniProt P21397).
T2 construct: purchased Gentest, BD, USA; host or cells: SF9 insect cells (membranes)
T2 sequence (P21397 1-527): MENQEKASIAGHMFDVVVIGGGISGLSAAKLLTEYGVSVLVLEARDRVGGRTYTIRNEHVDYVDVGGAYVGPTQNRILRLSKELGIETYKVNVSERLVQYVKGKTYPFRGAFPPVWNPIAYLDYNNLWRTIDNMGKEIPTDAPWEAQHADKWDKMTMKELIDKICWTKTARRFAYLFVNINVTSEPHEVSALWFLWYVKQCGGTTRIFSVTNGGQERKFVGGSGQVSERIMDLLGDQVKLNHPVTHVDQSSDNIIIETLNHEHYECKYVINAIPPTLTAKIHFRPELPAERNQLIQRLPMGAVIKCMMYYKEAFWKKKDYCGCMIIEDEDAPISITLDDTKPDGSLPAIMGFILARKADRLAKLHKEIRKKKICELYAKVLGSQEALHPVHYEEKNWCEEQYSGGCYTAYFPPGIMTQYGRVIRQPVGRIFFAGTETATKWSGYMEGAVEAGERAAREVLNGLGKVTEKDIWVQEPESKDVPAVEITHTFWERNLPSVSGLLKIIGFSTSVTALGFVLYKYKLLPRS
Briefly: In vitro MAO-A enzymatic activity (kynuramine substrate, fluorescence). Type of experiment: biochemical. The settings on record: membranes from SF9 cells, kynuramine 30 μM, read-out: Inhibitory activity of human MAO, Ki.

Experiment [7] has as its system Moraxella catarrhalis HCl-78 259/339. Briefly: MIC by standard microdilution (NCCLS M7-A5). The following applies: HCL78259/339, read-out: In vitro activities against bacteria, MIC. The experiment is classed as cell-based.
Experiment [8] concerns S. epidermidis ATCC 12228 MR 11. Description: microbe, parasite or virus in culture. The experiment is classed as cell-based. The following applies: Staphylococcus epidermidis, ATCC12228, read-out: In vitro activities against bacteria, MIC.
The test system of experiment [9] is Moxarella, Pasteurella and Bacteroides spp. The following applies: background statement; cited from earlier work.

Turning to `O=C1O[C@@H](CNC(=S)c2ccco2)CN1c1ccc(N2CCOCC2)c(F)c1` [Example 2, N-[[(5S)-3-[3-fluoro-4-(4-morpholinyl)-phenyl]-2-oxo-5-oxazolidinyl]methyl]furan-2-yl-thioamide], the MIC in [1] was 1 µg/mL (≈ 2.47 µM); in experiment [2] it was 2 µg/mL (≈ 4.93 µM); in [3], 2 µg/mL (≈ 4.93 µM); in experiment [4], 2 µg/mL (≈ 4.93 µM); in experiment [5], 8 µg/mL (≈ 19.7 µM); in experiment [6], 2 µg/mL (≈ 4.93 µM). In [7], the MIC was 2 µg/mL (≈ 4.93 µM). Further, the results for the Ki on human MAO-B and at human MAO-A were 5.3 µM and 170 µM, respectively.

With `O=C1O[C@@H](CNC(=S)c2ccoc2)CN1c1ccc(N2CCOCC2)c(F)c1` [Example 4, N-[[(5S)-3-[3-fluoro-4-(4-morpholinyl)-phenyl]-2-oxo-5-oxazolidinyl]methyl]furan-3-yl-thioamide], the MIC came out at 2 µg/mL (≈ 4.93 µM) in experiment [1]; 1 µg/mL (≈ 2.47 µM) in experiment [2]; 1 µg/mL (≈ 2.47 µM) in experiment [3]; 1 µg/mL (≈ 2.47 µM) in [4]; 1 µg/mL (≈ 2.47 µM) in experiment [5]; 1 µg/mL (≈ 2.47 µM) in experiment [6]. The MIC in experiment [8] and in experiment [7] was 1 µg/mL (≈ 2.47 µM) throughout. The Ki – broadly, a dissociation constant, usually derived from enzyme kinetics or from competition with a known ligand – at human MAO-B was 2.4 µM; at human MAO-A, at least 250 µM.

As for `CC(=S)N1CCN(c2ccc(N3C[C@H](CNC(=S)c4ccoc4)OC3=O)cc2F)CC1` [Example 7, N-[[(5S)-3-[3-fluoro-4-(4′-thioacetyl-4-piperazinyl)-phenyl]-2-oxo-5-oxazolidinyl]methyl]furan-3-yl-thioamide], the MIC in experiment [1] worked out at 0.5 µg/mL (≈ 1.08 µM); in experiment [2], 0.13 µg/mL (≈ 0.281 µM); in experiment [3], 0.06 µg/mL (≈ 0.13 µM); in experiment [4], 0.5 µg/mL (≈ 1.08 µM); in experiment [5], 0.5 µg/mL (≈ 1.08 µM); in experiment [6], 0.5 µg/mL (≈ 1.08 µM). Moreover, the MIC worked out at 0.5 µg/mL (≈ 1.08 µM) in experiment [8] and 0.25 µg/mL (≈ 0.54 µM) in experiment [7]. Besides, the values for the Ki on human MAO-B and on human MAO-A were 2.8 µM and at least 200 µM, respectively.

With `O=C1O[C@@H](CNC(=S)c2ccco2)CN1c1ccc(N2CCSCC2)c(F)c1` [Example 9, N-[[(5S)-3-[3-fluoro-4-(4-thiomorpholinyl)-phenyl]-2-oxo-5-oxazolidinyl]methyl]furan-2-yl-thioamide], the MIC was 8 µg/mL (≈ 19 µM) in experiment [1]; 2 µg/mL (≈ 4.74 µM) in experiment [2]; 2 µg/mL (≈ 4.74 µM) in [3]; 4 µg/mL (≈ 9.49 µM) in experiment [4]; 2 µg/mL (≈ 4.74 µM) in experiment [5]; 4 µg/mL (≈ 9.49 µM) in experiment [6]. Further, the MIC in experiment [8] was determined as 4 µg/mL (≈ 9.49 µM). Moreover, the Ki worked out at 1 µM on human MAO-B and 47.5 µM at human MAO-A.

As to `O=C1O[C@@H](CNC(=S)c2ccoc2)CN1c1ccc(N2CCSCC2)c(F)c1` [Example 11, N-[[(5S)-3-[3-fluoro-4-(4-thiomorpholinyl)-phenyl]-2-oxo-5-oxazolidinyl]methyl]furan-3-yl-thioamide], the MIC in [1] came to 1 µg/mL (≈ 2.37 µM); in experiment [2], 1 µg/mL (≈ 2.37 µM); in [3], 1 µg/mL (≈ 2.37 µM); in experiment [4], 1 µg/mL (≈ 2.37 µM); in experiment [5] it was 2 µg/mL (≈ 4.74 µM); in [6], 1 µg/mL (≈ 2.37 µM). In addition, the figures for the MIC in [8] and in experiment [7] were 1 µg/mL (≈ 2.37 µM) and 4 µg/mL (≈ 9.49 µM), respectively. Moreover, the inhibition constant Ki was 0.6 µM at human MAO-B and at least 250 µM at human MAO-A.

Turning to `CC(=O)NC[C@H]1CN(c2ccc(N3CCOCC3)c(F)c2)C(=O)O1` [Linezolid, N-[[(5S)-3-[3-Fluoro-4-(4-morpholinyl)phenyl]-2-oxo-5-oxazolidinyl]methyl]acetamide, reference compound], the MIC in experiment [1] was 1 µg/mL (≈ 2.96 µM); in experiment [2], 0.5 µg/mL (≈ 1.48 µM); in experiment [3], 0.5 µg/mL (≈ 1.48 µM); in [4], 1 µg/mL (≈ 2.96 µM); in experiment [5] it was 2 µg/mL (≈ 5.93 µM); in experiment [6], 2 µg/mL (≈ 5.93 µM). Also, the MIC in experiment [8] stood at 1 µg/mL (≈ 2.96 µM); in [7], 2 µg/mL (≈ 5.93 µM). Moreover, the MICs in experiment [9] was 2 to 8 µg/mL. Besides, the Ki at human MAO-B came to 0.48 µM; at human MAO-A it was 7 µM.
